Data published in patent US6908899B2, “Pro-inflammatory fibrinopeptide” (U.S. Dept. of Veterans Affairs, priority 2001, dated 2005).

Legend:
[1] = system: RA derived synovial cells; assay: In vitro T cell adhesion assay; type: cell-based, human; details: ± SD, triplicate wells
RA synovial fibroblasts = assay: IL-8 ELISA on cell culture supernatants; type: cell-based, human; details: for IL-8: 1 mg/ml GPRP
Procedure: I used commercial ELISA kits to assay cell culture supernatants of RA fibroblasts that were cultured for both 24 and 48 hours with or without peptide.

## Gly-Pro-Arg-Pro [GPRP]
[1]; RA line 7, GPRP 0.1 mg/ml overnight
  Adherent T cell numbers: 184 ± 58
[1]; RA line 7, GPRP 1 mg/ml overnight
  Adherent T cell numbers: 153 ± 54
[1]; RA line 8, GPRP 0.1 mg/ml overnight
  Adherent T cell numbers: 99 ± 18
[1]; RA line 8, GPRP 1 mg/ml overnight
  Adherent T cell numbers: 97 ± 10
RA synovial fibroblasts; RA Line 1, forty-eight hours
  Increase of IL-8 production: fifteen
RA synovial fibroblasts; RA Line 1, twenty-four hours
  Increase of IL-8 production: 12.6 fold
RA synovial fibroblasts; RA Line 2, forty-eight hours
  Increase of IL-8 production: ten
RA synovial fibroblasts; RA Line 2, twenty-four hours
  Increase of IL-8 production: ten
RA synovial fibroblasts; RA line 1, 24 hr
  IL-8: 16,000 pg/ml
RA synovial fibroblasts; RA line 1, 48 hr
  IL-8: 17,500 pg/ml
RA synovial fibroblasts; RA line 4, 24 hr
  IL-8: 9,000 pg/ml
RA synovial fibroblasts; RA line 4, 48 hr
  IL-8: 6,800 pg/ml
